Here are results for 27 compounds from patent publication US9243002B2, “Tetracyclic heterocycle compounds and methods of use thereof for the treatment of hepatitis C” (priority 2013, dated 2016).

For one test, the system named is HCV genotype 1a replicon. Put plainly: HCV replicon assay, genotype 1a (cell ELISA for NS3/4A). It is filed as cell-based, hepatitis C virus. Particulars: Hepatitis C virus, 96 h, read-out: 1a IC50 (nM), genotype 1a replicon cells, 96 hours incubation, NS3/4A ELISA. The method, then: (§1) Measurement of inhibition by compounds was performed using the HCV replicon system. Several different replicons encoding different HCV genotypes or mutations were used. In addition, potency measurements were made using different formats of the replicon assay, including different ways of measurements and different plating formats. See Jan M. Vrolijk et al., A replicons-based bioassay for the measurement of interferons in patients with chronic hepatitis C, 110 J. VIROLOGICAL METHODS 201 (2003); Steven S. Carroll et al., Inhibition of Hepatitis C Virus RNA Replication by 2′-Modified Nucleoside Analogs, 278 (14) J. BIOLOGICAL CHEMISTRY 11979 (2003). However, the underlying principles are common to all of these determinations, and are outlined below.
(§2) Stable neomycin phosphotransferase encoding replicons-harboring cell lines were used, so all cell lines were maintained under G418 selection prior to the assay. Potency was deteremined using a cell ELISA assay with an antibody to the replicons encoded NS3/4a protease. See Caterina Trozzi et al., In Vitro Selection and Characterization of Hepatitis C Virus Serine Protease Variants Resistant to an Active-Site Peptide Inhibitor, 77 (6) J. Virol. 3669 (2003). To initiate an assay, replicon cells were plated in the presence of a dilution series of test compound in the absence of G418. Typically, the assays were performed in a 96-well plate formate for manual operation, or a 384-well plate format for automated assay. Replicon cells and compound were incubated for 96 hours. At the end of the assay, cells were washed free of media and compound, and the cells were then lysed. RNA was quantified indirectly through detection of replicon-encoded NS3/4A protein levels, through an ELISA-based assay with an antibody specific for NS3/4A. IC50 determinations were calculated as a percentage of a DMSO control by fitting the data to a four-parameter fit function and the data obtained for genotypes 1a and 1b using this method is provided in the table below.
(A replicon is a self-replicating genome or part of one, used to study replication in cells.)

The subject of a further test is HCV genotype 1b replicon. Nature of the test: HCV replicon assay, genotype 1b (cell ELISA for NS3/4A). It is filed as cell-based, hepatitis C virus. The settings on record: Hepatitis C virus, 96 h, read-out: 1b IC50 (nM), genotype 1b replicon cells, 96 hours incubation, NS3/4A ELISA. The protocol: as §1, §2

SMILES strings stand for the structures.

On to `CNC(=O)c1c(-c2cnn(-c3ccccc3)c2)oc2cc(N(C)S(C)(=O)=O)c(-c3ccc4c(n3)-c3cc5c(F)cccc5n3CC4)cc12` [Example 18], for which the results for the IC50 in the test with HCV genotype 1a replicon and in the test with HCV genotype 1b replicon were 5480 nM and 296 nM, respectively.
For `CNC(=O)c1c(-c2cnn3c2CCC3)oc2cc(N(C)S(C)(=O)=O)c(-c3ccc4c(n3)-c3cc5c(F)cccc5n3CC4)cc12` [Example 19] the same measures were 56.9 nM and 52.3 nM.
The corresponding values for `CNC(=O)c1c(-c2cnc(C(C)(C)O)s2)oc2cc(N(C)S(C)(=O)=O)c(-c3ccc4c(n3)-c3cc5c(F)cccc5n3CC4)cc12` [Example 20] are 680 nM and 129 nM.
Consider `CNC(=O)c1c(-c2cnn3c2CCCC3)oc2cc(N(C)S(C)(=O)=O)c(-c3ccc4c(n3)-c3cc5c(F)cccc5n3CC4)cc12` [Example 21], for which the IC50 came to 149 nM in the test on HCV genotype 1a replicon and 34.3 nM with HCV genotype 1b replicon.
For `CNC(=O)c1c(-c2cnc(N3CCCC3)s2)oc2cc(N(C)S(C)(=O)=O)c(-c3ccc4c(n3)-c3cc5c(F)cccc5n3CC4)cc12` [Example 22], the IC50 with HCV genotype 1a replicon turned out to be 1450 nM; with HCV genotype 1b replicon, 163 nM.
With `CNC(=O)c1c(-c2cnn(CCO)c2)oc2cc(N(C)S(C)(=O)=O)c(-c3ccc4c(n3)-c3cc5c(F)cccc5n3CC4)cc12` [Example 23], the figures for the IC50 with HCV genotype 1a replicon and in the test with HCV genotype 1b replicon were 212 nM and 83.2 nM, respectively.
On to `CNC(=O)c1c(-c2cnn3ncccc23)oc2cc(N(C)S(C)(=O)=O)c(-c3ccc4c(n3)-c3cc5c(F)cccc5n3CC4)cc12` [Example 24], for which the results for the IC50 in the test on HCV genotype 1a replicon and with HCV genotype 1b replicon were 20 nM and 18.9 nM, respectively.
For `CNC(=O)c1c(-c2ccn[nH]2)oc2cc(N(C)S(C)(=O)=O)c(-c3ccc4c(n3)-c3cc5c(F)cccc5n3CC4)cc12` [Example 25] the same measures were 287 nM and 99.4 nM.
With `CNC(=O)c1c(-c2c(C)n[nH]c2C)oc2cc(N(C)S(C)(=O)=O)c(-c3ccc4c(n3)-c3cc5c(F)cccc5n3CC4)cc12` [Example 26], the IC50 in the test with HCV genotype 1a replicon is 69.3 nM; in the test with HCV genotype 1b replicon it was 84.4 nM.
For the compound `CCn1cc(-c2oc3cc(N(C)S(C)(=O)=O)c(-c4ccc5c(n4)-c4cc6c(F)cccc6n4CC5)cc3c2C(=O)NC)cn1` [Example 27], the IC50 came out at 9.13 nM with HCV genotype 1a replicon and 11.1 nM in the test with HCV genotype 1b replicon.
The corresponding values for `CNC(=O)c1c(-c2ccc(C(F)F)cc2)oc2cc(N(C)S(C)(=O)=O)c(-c3ccc4c(n3)-c3cc5c(F)cccc5n3CC4)cc12` [Example 29, 2-(4-(difluoromethyl)phenyl)-5-(11-fluoro-5,6-dihydroindolo[1,2-h][1,7]naphthyridin-2-yl)-N-methyl-6-(N-methylmethylsulfonamido)benzofuran-3-carboxamide] are 13.5 nM and 15.5 nM.
Regarding `CNC(=O)c1c(-c2ccc(F)cc2F)oc2cc(N(C)S(C)(=O)=O)c(-c3ccc4c(n3)-c3cc5c(F)cccc5n3CC4)cc12` [Example 30, 2-(2,4-difluorophenyl)-5-(11-fluoro-5,6-dihydroindolo[1,2-h][1,7]naphthyridin-2-yl)-N-methyl-6-(N-methylmethylsulfonamido)benzofuran-3-carboxamide], the IC50 in the test on HCV genotype 1a replicon turned out to be 2.49 nM; in the test with HCV genotype 1b replicon, 3.81 nM.
On to `CNC(=O)c1c(-c2ccc(F)cc2)oc2cc(N(C)S(C)(=O)=O)c(-c3ccc4c(n3)-c3cc5cc(F)ccc5n3CC4)cc12` [Example 31, 5-(10-fluoro-5,6-dihydroindolo[1,2-h][1,7]naphthyridin-2-yl)-2-(4-fluorophenyl)-N-methyl-6-(N-methylmethylsulfonamido)benzofuran-3-carboxamide], for which the IC50 in the test with HCV genotype 1a replicon came out at 4.53 nM; with HCV genotype 1b replicon, 4.64 nM.
`CNC(=O)c1c(-n2ccc(C)cc2=O)oc2cc(N(C)S(C)(=O)=O)c(-c3ccc4c(n3)-c3cc5c(F)cccc5n3CC4)cc12` [Example 32, 5-(11-fluoro-5,6-dihydroindolo[1,2-h][1,7]naphthyridin-2-yl)-N-methyl-2-(4-methyl-2-oxopyridin-1 (2H)-yl)-6-(N-methylmethylsulfonamido)benzofuran-3-carboxamide]: the IC50 is 10.6 nM in the test with HCV genotype 1a replicon and 3.95 nM with HCV genotype 1b replicon.
For `CNC(=O)c1c(-n2cc(C(F)(F)F)cn2)oc2cc(N(C)S(C)(=O)=O)c(-c3ccc4c(n3)-c3cc5c(F)cccc5n3CC4)cc12` [Example 33], the IC50 with HCV genotype 1a replicon was determined as 170 nM; in the test on HCV genotype 1b replicon it was 23.6 nM.
In the case of `CNC(=O)c1c(-n2ccccc2=O)oc2cc(N(C)S(C)(=O)=O)c(-c3ccc4c(n3)-c3cc5c(F)cccc5n3CC4)cc12` [Example 34], the IC50 came to 5.38 nM in the test on HCV genotype 1a replicon and 4.66 nM with HCV genotype 1b replicon.
For `CNC(=O)c1c(-c2nocc2C)oc2cc(N(C)S(C)(=O)=O)c(-c3ccc4c(n3)-c3cc5c(F)cccc5n3CC4)cc12` [Example 35, 5-(11-fluoro-5,6-dihydroindolo[1,2-h][1,7]naphthyridin-2-yl)-N-methyl-2-(4-methylisoxazol-3-yl)-6-(N-methylmethylsulfonamido)benzofuran-3-carboxamide] the same measures were 3.28 nM and 5.19 nM.
With `CNC(=O)c1c(-c2cnc(C)s2)oc2cc(N(C)S(C)(=O)=O)c(-c3ccc4c(n3)-c3cc5c(F)cccc5n3CC4)cc12` [Example 36, 5-(11-fluoro-5,6-dihydroindolo[1,2-h][1,7]naphthyridin-2-yl)-N-methyl-6-(N-methylmethylsulfonamido)-2-(2-methylthiazol-5-yl)benzofuran-3-carboxamide], the IC50 is 10.3 nM in the test with HCV genotype 1a replicon and 10.2 nM with HCV genotype 1b replicon.
Take `CNC(=O)c1c(-c2cncs2)oc2cc(N(C)S(C)(=O)=O)c(-c3ccc4c(n3)-c3cc5c(F)cccc5n3CC4)cc12` [Example 37]: the values for the IC50 in the test with HCV genotype 1a replicon and with HCV genotype 1b replicon were 9.83 nM and 14.2 nM, respectively.
`CCc1ncc(-c2oc3cc(N(C)S(C)(=O)=O)c(-c4ccc5c(n4)-c4cc6c(F)cccc6n4CC5)cc3c2C(=O)NC)s1` [Example 38]: the IC50 in the test with HCV genotype 1a replicon came to 21.8 nM; in the test on HCV genotype 1b replicon it was 17 nM.
The corresponding values for `CNC(=O)c1c(-c2ccc(F)cc2)oc2cc(N(C)S(C)(=O)=O)c(-c3cc4c(cn3)CCn3c-4cc4c(F)cccc43)cc12` [Example 39, 5-(11-fluoro-5,6-dihydroindolo[2,1-a][2,6]naphthyridin-2-yl)-2-(4-fluorophenyl)-N-methyl-6-(N-methylmethylsulfonamido)benzofuran-3-carboxamide] are 2.71 nM and 2.83 nM.
For `CNC(=O)c1c(-c2ccc(C)nc2)oc2cc(N(C)S(C)(=O)=O)c(-c3cc4c(cn3)CCn3c-4cc4c(F)cccc43)cc12` [Example 40] the same measures were 16.6 nM and 17.1 nM.
`CNC(=O)c1c(-c2ccc(F)cc2)oc2cc(N(C)S(C)(=O)=O)c(-c3cnc4c(c3)-c3cc5c(F)cccc5n3CC4)cc12` [Example 43, 5-(11-fluoro-5,6-dihydroindolo[2,1-f][1,6]naphthyridin-2-yl)-2-(4-fluorophenyl)-N-methyl-6-(N-methylmethylsulfonamido)benzofuran-3-carboxamide]: the IC50 with HCV genotype 1a replicon turned out to be 1.74 nM; in the test with HCV genotype 1b replicon it was 3.7 nM.
As to `CNC(=O)c1c(-c2ccc(F)cc2)oc2cc(N(C)S(C)(=O)=O)c(-c3cnc4c(n3)-c3cc5c(F)cccc5n3CC4)cc12` [Example 44, 5-(11-fluoro-5,6-dihydropyrazino[2′,3′:3,4]pyrido[1,2-a]indol-2-yl)-2-(4-fluorophenyl)-N-methyl-6-(N-methylmethylsulfonamido)benzofuran-3-carboxamide], the IC50 with HCV genotype 1a replicon was 1.76 nM; with HCV genotype 1b replicon it was 1.87 nM.
For the compound `CNC(=O)c1c(-c2ccc(F)cc2)oc2nc(N(C)S(C)(=O)=O)c(-c3ccc4c(n3)-c3cc5c(F)cccc5n3CC4)cc12` [Example 45, 5-(11-fluoro-5,6-dihydroindolo[1,2-h][1,7]naphthyridin-2-yl)-2-(4-fluorophenyl)-N-methyl-6-(N-methylmethylsulfonamido)furo[2,3-b]pyridine-3-carboxamide], the IC50 with HCV genotype 1a replicon turned out to be 4.29 nM; in the test with HCV genotype 1b replicon it was 8.72 nM.
The corresponding values for `CNC(=O)c1c(-c2ccc(F)cc2)nn2cc(N(C)S(C)(=O)=O)c(-c3ccc4c(n3)-c3cc5c(F)cccc5n3CC4)cc12` [Example 46, 5-(11-fluoro-5,6-dihydroindolo[1,2-h][1,7]naphthyridin-2-yl)-2-(4-fluorophenyl)-N-methyl-6-(N-methylmethylsulfonamido)pyrazolo[1,5-a]pyridine-3-carboxamide] are 2.23 nM and 2.4 nM.
The corresponding values for `CNC(=O)c1c2cc(-c3ccc4c(n3)-c3cc5c(F)cccc5n3CC4)c(N(C)S(C)(=O)=O)cc2nn1-c1ccc(F)cc1` [Example 47, 5-(11-fluoro-5,6-dihydroindolo[1,2-h][1,7]naphthyridin-2-yl)-2-(4-fluorophenyl)-N-methyl-6-(N-methylmethylsulfonamido)-2H-indazole-3-carboxamide] are 14.5 nM and 8.46 nM.
